# Tested on: CHO^R cells
# Assay: Reversal of multidrug resistance: cell growth of vinblastine-resistant CHO^R cells, Coulter counter cell count
# [1] = 72 h, read-out: % Inhibition of Cell Growth Compound Only
SMILES,inhibition at 0.1 µg/mL [1],inhibition at 1 µg/mL [1],inhibition at 5 µg/mL [1],inhibition at 10 µg/mL [1],"% Inhibition of Cell Growth Compound + VLB (compound 0.1 µg/ml + vinblastine 0.2 µg/ml, 72 hr)","% Inhibition of Cell Growth Compound + VLB (compound 1 µg/ml + vinblastine 0.2 µg/ml, 72 hr)","% Inhibition of Cell Growth Compound + VLB (compound 5 µg/ml + vinblastine 0.2 µg/ml, 72 hr)","% Inhibition of Cell Growth Compound + VLB (compound 10 µg/ml + vinblastine 0.2 µg/ml, 72 hr)","effect on cell growth (VLB alone at 0.2 µg/ml, 72 hr)"
CCCc1[nH]c(=O)oc1-c1ccnc2ccccc12 [4-Propyl-5-(4-Quinolinyl)-1-(3H)-Oxazolone],0%,0%,0%,14%,4%,43%,93%,93%,
"CC[C@]1(O)C[C@@H]2CN(CCc3c([nH]c4ccccc34)[C@@](C(=O)OC)(c3cc4c(cc3OC)N(C)[C@H]3[C@@](O)(C(=O)OC)[C@H](OC(C)=O)[C@]5(CC)C=CCN6CC[C@]43[C@@H]65)C2)C1 [VLB, vinblastine, reference compound]",,,,,,,,,did not have any effect on cell growth

# From patent EP0428107A2, “Use of quinolyl-and isoquinolyloxanole-2-ones for the production of a medicament for the treatment of multi-drug resistant tumors” (MERRELL DOW PHARMACEUTICALS INC., priority 1989, dated 1991)
